Reference: patent US12410179B2, “Modulators of TNF alpha activity and uses thereof” (RayThera, Inc., priority 2023, dated 2025)
pIC50: −log10 of the molar value. Like-named read-outs stand apart in the source and are kept apart here.

Biological target: TNFα (Homo sapiens, UniProt P01375)
Test: HEK-Blue hTNFα reporter assay
Assay type: cell-based
Parameters: purchased R&D biosystem (R&D Systems) 210-TA-020/CF
Settings: HEK-Blue hTNFα reporter cells
From the text: Stimulation of HEK293 cells by TNFα leads to activation of the NF-κB pathway. The potency of compounds was examined in HEK-Blue™ hTNFα reporter cells (Invivogen, Cat #hkb-tnfdmyd). HEK-Blue™ TNFα cells were generated by stable transfection of HEK293 cell line with a SEAP reporter gene under the control of the […] minimal promoter fused to NF-κB binding sites. Stimulation of HEK-Blue™ TNFα cells with TNFα triggers the activation of the NF-κB-inducible promoter and the production of SEAP. Levels of SEAP in the supernatant can be easily determined using QUANTI-Blue™ Solution (Invivogen, cat #rep-qbs) by reading the OD at 620-655 nm.
HEK-Blue™ TNFα cells were cultured in DMEM supplemented with 10% FBS, 100p/mL penicillin, 100 μg/mL streptomycin, 100 μg/mL normocin, 1 μg/mL puromycin, and 100 μg/mL zeocin. The culture was maintained in culture incubator with 5% CO2 at 37° C. When used for assay, the cells were gently rinsed twice with pre-warmed phosphate buffered saline (PBS) and detached in presence of PBS by tapping the flask or by using a cell scraper. The cells were spun to remove PBS and resuspended in fresh, pre-warmed test medium (DMEM supplemented with 10% FBS, 100p/mL penicillin, and 100 μg/mL streptomycin). A serial dilution of work solution of tested compound was made in DMSO with 1000× of final concentration, and 40 nL of compound DMSO solution was transferred into 384-well plates (Corning 3764) by Echo, and incubated with 10 μL of recombinant hTNFα (R&D biosystem, Cat #210-TA-020/CF) for 1 h at 37° C. The compound/hTNFα mixture well received 30 μL HEK-Blue™ TNFα cell suspension at 10000 cells/well, and then incubated at 37° C. with 5% CO2 for 24 h. The final concentration of hTNFα is […]. After incubation, 5 μL of induced cell supernatant was transferred to a new 384-well plate well (Coring 3764) to mix with 45 μL of QUANTI-Blue Solution. After 1 h incubation at 37° C., the plate was read using a spectrophotometer at 620 nm.
The percentage of inhibition was calculated by the following formula: % inhibition=(positive control−Sample)/(positive control−negative control)*100 • Positive control: OD620 reading of cells with hTNFα stimulation. • Negative control: OD620 reading of cells without hTNFα stimulation. • Sample: OD620 reading of cells with compound at specific concentration and hTNFα stimulation
The % inhibition was plotted against compound concentration in logarithmic scale and the IC50 was rendered using 4-parameter nonlinear regression (GraphPad Prism).

[1] = SEAP readout, read-out: IC50 Range

Chain of TNFα (P01375 77-233 limits assumed): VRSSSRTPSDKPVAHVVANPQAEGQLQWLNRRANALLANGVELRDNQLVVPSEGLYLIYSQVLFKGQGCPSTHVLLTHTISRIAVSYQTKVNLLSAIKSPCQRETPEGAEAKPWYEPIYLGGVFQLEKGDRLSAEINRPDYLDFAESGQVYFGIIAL

Row | pIC50 [1] | Emax (read-out: TNFα reporter, Emax) [%] | pIC50 (read-out: TNFα reporter, IC50) | Structure (SMILES)
1 | > 7.60 | – | – | [2H]C([2H])([2H])N1C(=O)c2cccc(OC(F)F)c2[C@H]2C[C@@H]1c1nn3ccc(-c4ccc(P(C)(C)=O)nc4)cc3c12 [Example 31]
2 | > 7.60 | – | – | C[C@]1(C#N)C[C@](N)(c2ncc(-c3cc4c5c(nn4cc3F)[C@H]3C[C@@H]5c4c(OC(F)F)cccc4C(=O)N3)cc2F)C1 [Example 58]
3 | > 7.60 | – | – | CN1C(=O)c2cccc(OC(F)F)c2[C@H]2C[C@@H]1c1nn3ccc(-c4cnc([C@@H](N)C5CC5)nc4)cc3c12 [Example 104]
4 | > 7.60 | – | – | CN1C(=O)c2cccc(OC(F)F)c2C2CC1c1nn3ccc(-c4cnc(C5(N)CCC5)nc4)cc3c12 (stereo not drawn) [Example 14, 12-(2-(1-aminocyclobutyl)pyrimidin-5-yl)-1-(difluoromethoxy)-6-methyl-6,7-dihydro-7,14-methanobenzo[c]pyrido[1′,2′:1,5]pyrazolo[4,3-f]azocin-5 (14H)-one]
5 | > 7.60 | – | – | C[C@]1(C#N)C[C@](N)(c2ncc(-c3ccn4nc5c(c4c3)[C@@H]3C[C@H]5NC(=O)c4cccc(OC(F)F)c43)cn2)C1 [Example 195]
6 | > 7.60 | – | – | C[C@]1(C#N)C[C@](N)(c2ncc(-c3ccn4nc5c(c4n3)[C@@H]3C[C@H]5NC(=O)c4cccc(OC(F)F)c43)cc2F)C1 [Example 173]
7 | > 7.60 | – | – | [2H]C([2H])([2H])N1C(=O)c2cccc(C3CC3)c2[C@H]2C[C@@H]1c1nn3ccc(-c4cnc(C5(N)CCC5)nc4)cc3c12 [Example 313]
8 | > 7.60 | – | – | C[C@](O)(CC#N)c1ncc(-c2cc3c4c(nn3cc2F)[C@H]2C[C@@H]4c3c(OC(F)F)cccc3C(=O)N2)cn1 [Example 192]
9 | > 7.60 | – | – | CN1C(=O)c2cccc(OC(F)F)c2[C@H]2C[C@@H]1c1nn3ccc(-c4cnc([C@@](C)(O)CO)nc4)cc3c12 [Example 84]
10 | 7.00 to 7.60 | – | – | [2H]C([2H])([2H])N1C(=O)c2cccc(OC(F)F)c2[C@H]2C[C@@H]1c1nn3ccc(-c4cnc([C@]5(N)C[C@@H](O)C5)nc4)nc3c12 [Example 204]
11 | > 7.60 | – | – | C[C@]1(O)C[C@](N)(c2ccc(-c3ccn4nc5c(c4c3)[C@@H]3C[C@H]5NC(=O)c4cccc(OC(F)F)c43)cn2)C1 [Example 224]
12 | 7.00 to 7.60 | – | – | NC1(c2ncc(-c3ccn4nc5c(c4c3)[C@@H]3C[C@H]5NC(=O)c4cccc(OC5CC5)c43)cn2)CCC1 [Example 233]
13 | > 7.60 | – | – | CN1C(=O)c2cccc(OC(F)F)c2[C@H]2C[C@@H]1c1nn3ccc(-c4cnc([C@](C)(O)C5CC5)nc4)cc3c12 [Example 81]
14 | > 7.60 | – | – | [2H]C([2H])([2H])N1C(=O)c2cccc(OC(F)F)c2[C@H]2C[C@@H]1c1nn3cc(F)c(-c4cnc([C@]5(N)C[C@@](C)(O)C5)c(F)c4)nc3c12 [Example 188]
15 | > 7.60 | – | – | [2H]C([2H])([2H])N1C(=O)c2cccc(OC(F)F)c2[C@H]2C[C@@H]1c1nn3ccc(-c4cnc([C@]5(N)C[C@@](C)(O)C5)c(F)c4)nc3c12 [Example 189]
16 | > 7.60 | – | – | CN1C(=O)c2cccc(OC(F)F)c2[C@H]2C[C@@H]1c1nn3ccc(-c4cnc([C@@](C)(O)C5CC5)nc4)cc3c12 [Example 80]
17 | > 7.60 | – | – | [2H]C([2H])([2H])N1C(=O)c2cccc(OC(F)F)c2[C@H]2C[C@@H]1c1nn3ccc(-c4cnc([C@]5(N)C[C@H](C#N)C5)nc4)nc3c12 [Example 179]
18 | > 7.60 | – | – | CN1C(=O)c2cc(F)cc(OC(F)F)c2[C@H]2C[C@@H]1c1nn3ccc(-c4ccc(P(C)(C)=O)nc4)cc3c12 [Example 35]
19 | > 7.60 | – | – | CN1C(=O)c2cccc(OC(F)F)c2[C@H]2C[C@@H]1c1nn3ccc(-c4cnc([C@](C)(O)C(F)F)nc4)cc3c12 [Example 74]

Row | pIC50 [1] | Emax (read-out: TNFα reporter, Emax) [%] | pIC50 (read-out: TNFα reporter, IC50) | Structure (SMILES)
20 | > 7.60 | – | – | [2H]C([2H])([2H])N1C(=O)c2cccc(OC(F)F)c2[C@H]2C[C@@H]1c1nn3cc(F)c(-c4cnc([C@]5(N)C[C@@H](C#N)C5)nc4)nc3c12 [Example 227]
21 | > 7.60 | – | – | [2H]C([2H])([2H])N1C(=O)c2cccc(OC(F)F)c2[C@H]2C[C@@H]1c1nn3ccc(-c4cnc([C@]5(C#N)C[C@](C)(N)C5)nc4)cc3c12 [Example 280]
22 | 7.00 to 7.60 | – | – | CN1C(=O)c2ccc(OC(F)F)nc2[C@H]2C[C@@H]1c1nn3ccc(-c4cnc([C@]5(O)C[C@@](C)(O)C5)nc4)cc3c12 [Example 321, 2-(difluoromethoxy)-12-(2-((1s, 3s)-1,3-dihydroxy-3-methylcyclobutyl)pyrimidin-5-yl)-6-methyl-6,7-dihydro-7,14-methanopyrido[3,2-c]pyrido[1′,2′:1,5]pyrazolo[4,3-f]azocin-5 (14H)-one]
23 | > 7.60 | – | – | CN1C(=O)c2ccnc(OC(F)F)c2[C@H]2C[C@@H]1c1nn3cc(F)c(-c4ccc(P(C)(C)=O)c(F)c4)cc3c12 [Example 159]
24 | > 7.60 | – | – | CN1C(=O)c2cccc(OC(F)F)c2[C@H]2C[C@@H]1c1nn3ccc(-c4cnc(C5(N)CC5)nc4)cc3c12 [Example 17]
25 | > 7.60 | – | – | [2H]C([2H])([2H])N1C(=O)c2cccc(OC(F)F)c2[C@H]2C[C@@H]1c1nn3ccc(-c4cnc([C@@](C)(N)CC#N)nc4)cc3c12 [Example 265]
26 | > 7.60 | – | – | [2H]C([2H])([2H])N1C(=O)c2cccc(OC(F)F)c2[C@H]2C[C@@H]1c1nn3ccc(-c4cnc([C@]5(N)C[C@@](C)(O)C5)nc4)cc3c12 [Example 222]
27 | > 7.60 | – | – | C[C@H](O)c1ncc(-c2ccn3nc4c(c3c2)[C@@H]2C[C@H]4N(C)C(=O)c3cccc(OC(F)F)c32)cn1 [Example 93]
28 | > 7.60 | – | – | CN1C(=O)c2cccc(OC(F)F)c2[C@H]2C[C@@H]1c1nn3ccc(-c4cnc([C@@]5(O)CC[C@@H](O)C5)nc4)cc3c12 [Example 112]
29 | > 7.60 | – | – | C#Cc1cccc2c1[C@H]1C[C@H](c3nn4ccc(-c5cnc([C@]6(O)C[C@@](C)(O)C6)nc5)cc4c31)N(C)C2=O [Example 305]
30 | 7.00 to 7.60 | – | – | [2H]C([2H])([2H])N1C(=O)c2cccc(OC(F)F)c2[C@H]2C[C@@H]1c1nn3cc(F)c(-c4cnc([C@]5(O)C[C@@](C)(N)C5)nc4)nc3c12 [Example 185]
31 | > 7.60 | – | – | CN1C(=O)c2cccc(OC(F)F)c2[C@H]2C[C@@H]1c1nn3ccc(-c4cnc(C5(O)CC(C)(C#N)C5)nc4)nc3c12 (stereo partly drawn) [Example 4, (1R,3s)-3-(5-((7R,14S)-1-(difluoromethoxy)-6-methyl-5-oxo-5,6,7,14-tetrahydro-7,14-methanobenzo[c]pyrimido[1′,2′:1,5]pyrazolo[4,3-f]azocin-12-yl)pyrimidin-2-yl)-3-hydroxy-1-methylcyclobutane-1-carbonitrile]
32 | > 7.60 | – | – | C[C@@H](O)c1ncc(-c2ccn3nc4c(c3c2)[C@@H]2C[C@H]4N(C)C(=O)c3cccc(OC(F)F)c32)cn1 [Example 94]
33 | > 7.60 | – | – | [2H]C([2H])([2H])N1C(=O)c2cccc(OC(F)F)c2[C@H]2C[C@@H]1c1nn3cc(F)c(-c4cnc([C@]5(N)C[C@@](C)(C#N)C5)nc4)nc3c12 [Example 213]
34 | > 7.60 | – | – | CN1C(=O)c2cccc(OC(F)F)c2[C@H]2C[C@@H]1c1nn3ccc(-c4cnc(C5(N)CC(F)(F)C5)nc4)cc3c12 [Example 99]
35 | > 7.60 | 94 | 8.44 | CN1C(=O)c2cccc(OC(F)F)c2[C@H]2C[C@@H]1c1nn3cnc(-c4cnc([C@]5(N)C[C@@](C)(O)C5)c(F)c4)cc3c12 [Example 47]
36 | > 7.60 | – | – | CN1C(=O)c2cccc(OC(F)F)c2[C@H]2C[C@@H]1c1nn3cnc(-c4cnc(C5(N)CC(F)(F)C5)nc4)cc3c12 [Example 146]
37 | > 7.60 | – | – | [2H]C([2H])([2H])N1C(=O)c2cccc(OC(F)F)c2[C@H]2C[C@@H]1c1nn3ccc(-c4cnc([C@](C)(O)CC#N)nc4)cc3c12 [Example 90]
